This experiment concerns the target T1, mGluR5 (Homo sapiens, UniProt P41594).
T1 construct: expressed in transfected cells
Nature of the experiment: inhibition of the glutamate (agonist) induced elevation of the inositol phosphate turnover. Conditions: inhibition of glutamate induced elevation of inositol phosphate turnover at 0.1 μM. It counts as cell-based. The source says: This can be determined in vitro for example at recombinant human metabotropic glutamate receptors, especially PLC-coupled subtypes thereof such as mGluR5, using different procedures like, for example, measurement of the inhibition of the agonist induced elevation of intracellular Ca^2+ concentration in accordance with L. P. Daggett et al., Neuropharm. Vol. 34, pages 871-886 (1995), P. J. Flor et al., J. Neurochem. Vol. 67, pages 58-63 (1996) or by determination to what extent the agonist induced elevation of the inositol phosphate turnover is inhibited as described by T. Knoepfel et al., Eur. J. Pharmacol. Vol. 288, pages 389-392 (1994), L. P. Daggett et al., Neuropharm. Vol. 67, pages 58-63 (1996) and references cited therein. Isolation and expression of human mGluR subtypes are described in U.S. Pat. No. 5,521,297. Selected agents of the invention show IC50 values for the inhibition of the agonist (e.g. glutamate or quisqualate) induced elevation of intracellular Ca2+ concentration or the agonist (e.g. glutamate or quisqualate) induced inositol phosphate turnover, measured in recombinant cells expressing hmGluR^5a of about 0.1 nM to about 50 μM.
Activity of compounds of the present invention was examined by determination to what extent the agonist induced elevation of the inositol phosphate turnover is inhibited as described by T. Knoepfel et al., Eur. J. Pharmacol. Vol. 288, pages 389-392 (1994), L. P. Daggett et al., Neuropharm. Vol. 67, pages 58-63 (1996) and references cited therein.
The table below represents percentages of inhibition of the glutamate induced elevation of the inositol phosphate turnover at a concentration of 0.1 μM.
T1 sequence (P41594 21-1180 isoform P41594-2 limits assumed): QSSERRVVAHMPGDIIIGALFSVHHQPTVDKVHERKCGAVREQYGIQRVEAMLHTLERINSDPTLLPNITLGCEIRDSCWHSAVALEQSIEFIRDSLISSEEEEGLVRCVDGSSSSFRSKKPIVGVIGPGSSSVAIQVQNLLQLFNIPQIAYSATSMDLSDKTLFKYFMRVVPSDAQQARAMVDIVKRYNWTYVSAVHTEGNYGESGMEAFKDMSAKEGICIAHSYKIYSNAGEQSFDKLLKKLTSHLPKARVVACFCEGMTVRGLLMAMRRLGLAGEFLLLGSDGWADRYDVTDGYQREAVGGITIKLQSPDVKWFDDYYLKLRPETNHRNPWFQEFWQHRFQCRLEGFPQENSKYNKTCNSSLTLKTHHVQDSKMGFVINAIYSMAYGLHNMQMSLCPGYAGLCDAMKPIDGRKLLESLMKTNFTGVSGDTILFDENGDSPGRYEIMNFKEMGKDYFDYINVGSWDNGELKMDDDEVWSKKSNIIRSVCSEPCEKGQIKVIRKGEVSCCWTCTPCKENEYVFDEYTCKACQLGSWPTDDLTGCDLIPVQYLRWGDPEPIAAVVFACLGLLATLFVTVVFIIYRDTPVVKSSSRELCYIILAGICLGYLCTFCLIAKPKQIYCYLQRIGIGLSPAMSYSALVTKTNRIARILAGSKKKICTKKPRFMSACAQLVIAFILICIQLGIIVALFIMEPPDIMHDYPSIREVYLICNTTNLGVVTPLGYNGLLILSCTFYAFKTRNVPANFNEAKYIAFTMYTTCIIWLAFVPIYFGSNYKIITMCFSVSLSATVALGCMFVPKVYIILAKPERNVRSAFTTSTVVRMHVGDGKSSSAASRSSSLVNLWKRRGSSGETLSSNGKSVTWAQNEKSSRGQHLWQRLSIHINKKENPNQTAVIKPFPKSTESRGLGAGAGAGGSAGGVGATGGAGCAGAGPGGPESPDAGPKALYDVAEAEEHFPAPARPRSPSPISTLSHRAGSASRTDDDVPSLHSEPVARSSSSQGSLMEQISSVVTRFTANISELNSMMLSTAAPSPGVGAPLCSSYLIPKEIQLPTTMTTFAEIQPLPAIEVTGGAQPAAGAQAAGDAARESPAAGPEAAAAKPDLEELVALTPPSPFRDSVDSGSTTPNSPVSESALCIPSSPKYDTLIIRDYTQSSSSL
In the case of `CCCCCn1c(-c2cnc(Nc3ccc(C)nc3)c(Cl)c2)nc2ccccc21` [Example 19, [3-Chloro-5-(1-pentyl-1H-benzoimidazol-2-yl)-pyridin-2-yl]-(6-methyl-pyridin-3-yl)-amine], the inhibition at 0.1 µM was 57%.

As for `Cc1ccc(Nc2ncc(-c3nc4ccccc4n3CC(C)C)cc2Cl)cn1` [Example 20, [3-Chloro-5-(1-isobutyl-1H-benzoimidazol-2-yl)-pyridin-2-yl]-(6-methyl-pyridin-3-yl)-amine], the inhibition at 0.1 µM turned out to be 98%.

For the molecule `CCCn1c(-c2cnc(Nc3ccc(C)nc3)c(Cl)c2)nc2cc(C(F)(F)F)ccc21` [Example 21, [3-Chloro-5-(1-propyl-5-trifluoromethyl-1H-benzoimidazol-2-yl)-pyridin-2-yl]-(6-methyl-pyridin-3-yl)-amine], the inhibition at 0.1 µM turned out to be 65%.

With `CCCn1c(-c2cnc(Nc3ccc(C)nc3)c(Cl)c2)nc2cc(C)ccc21` [Example 22, [3-Chloro-5-(5-methyl-1-propyl-1H-benzoimidazol-2-yl)-pyridin-2-yl]-(6-methyl-pyridin-3-yl)-amine], the inhibition at 0.1 µM came out at 97%.

For `CCCn1c(-c2cnc(Nc3ccc(C)nc3)c(Cl)c2)nc2ccc(C)cc21` [Example 23, [3-Chloro-5-(6-methyl-1-propyl-1H-benzoimidazol-2-yl)-pyridin-2-yl]-(6-methyl-pyridin-3-yl)-amine], the inhibition at 0.1 µM stood at 84%.

On to `CCCn1c(-c2cnc(Nc3ccc(C)nc3)c(Cl)c2)nc2cccc(C)c21` [Example 24, [3-Chloro-5-(7-methyl-1-propyl-1H-benzoimidazol-2-yl)-pyridin-2-yl]-(6-methyl-pyridin-3-yl)-amine], for which the inhibition at 0.1 µM is 101%.

Take `CCCn1c(-c2cnc(Nc3ccc(C)nc3)c(Cl)c2)nc2c(C)cccc21` [Example 25, [3-Chloro-5-(4-methyl-1-propyl-1H-benzoimidazol-2-yl)-pyridin-2-yl]-(6-methyl-pyridin-3-yl)-amine]: the inhibition at 0.1 µM amounted to 97%.

Take `CCCn1c(-c2cnc(Nc3ccc(C)nc3)c(Cl)c2)nc2ccc(C)c(C)c21` [Example 26, [3-Chloro-5-(6,7-dimethyl-1-propyl-1H-benzoimidazol-2-yl)-pyridin-2-yl]-(6-methyl-pyridin-3-yl)-amine]: the inhibition at 0.1 µM was determined as 98%.

With `CCCn1c(-c2cnc(Nc3ccc(C)nc3)c(Cl)c2)nc2c(C)ccc(C)c21` [Example 29, [3-Chloro-5-(4,7-dimethyl-1-propyl-1H-benzoimidazol-2-yl)-pyridin-2-yl]-(6-methyl-pyridin-3-yl)-amine], the inhibition at 0.1 µM was determined as 99%.

`CCCn1c(-c2cnc(Nc3ccc(C)nc3)c(Cl)c2)nc2cc(F)c(F)cc21` [Example 30, [3-Chloro-5-(5,6-difluoro-1-propyl-1H-benzoimidazol-2-yl)-pyridin-2-yl]-(6-methyl-pyridin-3-yl)-amine]: the inhibition at 0.1 µM turned out to be 99%.

`Cc1ccc(Nc2ncc(-c3nc4cccc5c4n3CCC5)cc2Cl)cn1` [Example 31, [3-Chloro-5-(5,6-dihydro-4H-imidazo[4,5,1-ij]quinolin-2-yl)-pyridin-2-yl]-(6-methyl-pyridin-3-yl)-amine]: the inhibition at 0.1 µM was 90%.

With `CCCn1c(-c2cnc(Nc3ccc(C)nc3)c(Cl)c2)nc2cc(I)cc(Cl)c21` [Example 34b, [3-Chloro-5-(7-chloro-5-iodo-1-propyl-1H-benzoimidazol-2-yl)-pyridin-2-yl]-(6-methyl-pyridin-3-yl)-amine], the inhibition at 0.1 µM came to 97%.

Take `CCCn1c(-c2cnc(Nc3ccc(C)nc3)c(Cl)c2)nc2cc(Cl)ccc21` [Example 45, [3-Chloro-5-(5-chloro-1-propyl-1H-benzoimidazol-2-yl)-pyridin-2-yl]-(6-methyl-pyridin-3-yl)-amine]: the inhibition at 0.1 µM was 91%.

On to `CCCn1c(-c2cnc(Nc3ccc(C)nc3)c(Cl)c2)nc2c(Cl)cccc21` [Example 47, [3-Chloro-5-(4-chloro-1-propyl-1H-benzoimidazol-2-yl)-pyridin-2-yl]-(6-methyl-pyridin-3-yl)-amine], for which the inhibition at 0.1 µM was found to be 100%.

Regarding `CCCn1c(-c2cnc(Nc3ccc(C)nc3)c(Cl)c2)nc2cccc(Cl)c21` [Example 48, [3-Chloro-5-(7-chloro-1-propyl-1H-benzoimidazol-2-yl)-pyridin-2-yl]-(6-methyl-pyridin-3-yl)-amine], the inhibition at 0.1 µM came out at 101%.

For `CCCn1c(-c2cnc(Nc3ccc(Cl)cc3)c(Cl)c2)nc2cccc(Cl)c21` [Example 52, [3-Chloro-5-(7-chloro-1-propyl-1H-benzoimidazol-2-yl)-pyridin-2-yl]-(4-chloro-phenyl)-amine], the inhibition at 0.1 µM is 99%.

Regarding `CCCn1c(-c2cnc(Nc3ccccc3F)c(Cl)c2)nc2cccc(Cl)c21` [Example 53, [3-Chloro-5-(7-chloro-1-propyl-1H-benzoimidazol-2-yl)-pyridin-2-yl]-(2-fluoro-phenyl)-amine], the inhibition at 0.1 µM turned out to be 95%.

Turning to `CCCn1c(-c2cnc(Nc3ccc(F)cc3)c(Cl)c2)nc2cccc(Cl)c21` [Example 54, [3-Chloro-5-(7-chloro-1-propyl-1H-benzoimidazol-2-yl)-pyridin-2-yl]-(4-fluoro-phenyl)-amine], the inhibition at 0.1 µM worked out at 97%.

Take `CCCn1c(-c2cnc(Nc3cccc(F)c3)c(Cl)c2)nc2cccc(Cl)c21` [Example 55, [3-Chloro-5-(7-chloro-1-propyl-1H-benzoimidazol-2-yl)-pyridin-2-yl]-(3-fluoro-phenyl)-amine]: the inhibition at 0.1 µM came to 63%.

Regarding `CCCn1c(-c2cnc(Nc3ccc(C#N)cc3)c(Cl)c2)nc2cccc(Cl)c21` [Example 56, 4-[3-Chloro-5-(7-chloro-1-propyl-1H-benzoimidazol-2-yl)-pyridin-2-ylamino]-benzonitrile], the inhibition at 0.1 µM is 100%.

Take `CCCn1c(-c2cnc(Nc3ccc(F)c(F)c3)c(Cl)c2)nc2cccc(Cl)c21` [Example 57, [3-Chloro-5-(7-chloro-1-propyl-1H-benzoimidazol-2-yl)-pyridin-2-yl]-(3,4-difluoro-phenyl)-amine]: the inhibition at 0.1 µM worked out at 93%.

Take `CCCn1c(-c2cnc(Nc3cccc(F)c3F)c(Cl)c2)nc2cccc(Cl)c21` [Example 58, [3-Chloro-5-(7-chloro-1-propyl-1H-benzoimidazol-2-yl)-pyridin-2-yl]-(2,3-difluoro-phenyl)-amine]: the inhibition at 0.1 µM is 40%.

As to `CCCn1c(-c2cnc(Nc3ccncc3)c(Cl)c2)nc2cccc(Cl)c21` [Example 59, [3-Chloro-5-(7-chloro-1-propyl-1H-benzoimidazol-2-yl)-pyridin-2-yl]-pyridin-4-yl-amine], the inhibition at 0.1 µM came out at 51%.

For `CCCn1c(-c2cnc(Nc3ccc(C)nn3)c(Cl)c2)nc2cccc(Cl)c21` [Example 60, [3-Chloro-5-(7-chloro-1-propyl-1H-benzoimidazol-2-yl)-pyridin-2-yl]-(6-methyl-pyridazin-3-yl)-amine], the inhibition at 0.1 µM amounted to 87%.

As for `CCCn1c(-c2cnc(Nc3ccc4nccnc4c3)c(Cl)c2)nc2cccc(Cl)c21` [Example 61, [3-Chloro-5-(7-chloro-1-propyl-1H-benzoimidazol-2-yl)-pyridin-2-yl]-quinoxalin-6-yl-amine], the inhibition at 0.1 µM stood at 96%.

As to `CCCn1c(-c2cnc(Nc3cnc(C)cn3)c(Cl)c2)nc2cccc(Cl)c21` [Example 62, [3-Chloro-5-(7-chloro-1-propyl-1H-benzoimidazol-2-yl)-pyridin-2-yl]-(5-methyl-pyrazin-2-yl)-amine], the inhibition at 0.1 µM is 99%.

Take `CCCn1c(-c2cnc(Nc3cnc4ccccc4c3)c(Cl)c2)nc2cccc(Cl)c21` [Example 63, [3-Chloro-5-(7-chloro-1-propyl-1H-benzoimidazol-2-yl)-pyridin-2-yl]-quinolin-3-yl-amine]: the inhibition at 0.1 µM turned out to be 28%.

With `CCCn1c(-c2cnc(Nc3ccc4ncccc4c3)c(Cl)c2)nc2cccc(Cl)c21` [Example 64, [3-Chloro-5-(7-chloro-1-propyl-1H-benzoimidazol-2-yl)-pyridin-2-yl]-quinolin-6-yl-amine], the inhibition at 0.1 µM was found to be 17%.

For `CCCn1c(-c2cnc(Nc3ccc(C)cc3)c(Cl)c2)nc2ccc(F)cc21` [Example 65, [3-Chloro-5-(6-fluoro-1-propyl-1H-benzoimidazol-2-yl)-pyridin-2-yl]-p-tolyl-amine], the inhibition at 0.1 µM is 92%.

Regarding `CCCn1c(-c2cnc(Nc3ccc(OC)cc3)c(Cl)c2)nc2ccc(F)cc21` [Example 66, [3-Chloro-5-(6-fluoro-1-propyl-1H-benzoimidazol-2-yl)-pyridin-2-yl]-(4-methoxy-phenyl)-amine], the inhibition at 0.1 µM worked out at 93%.

On to `CCCn1c(-c2cnc(Nc3c(F)cccc3F)c(Cl)c2)nc2cccc(Cl)c21` [Example 67, [3-Chloro-5-(7-chloro-1-propyl-1H-benzoimidazol-2-yl)-pyridin-2-yl]-(2,6-difluoro-phenyl)-amine], for which the inhibition at 0.1 µM came to 42%.

These data come from patent US20090105266A1, “Organic compounds” (priority 2007, published 2009).
